Results published in ChEMBL document CHEMBL4616723, “Discovery of Antibacterials That Inhibit Bacterial RNA Polymerase Interactions with Sigma Factors” (J Med Chem, 2020).
Values after ≈ are worked out from the molar mass of the structure shown.

What was measured:
Format in all cases: functional
[1] = system: Streptococcus pneumoniae; assay: Antibacterial activity against Streptococcus pneumoniae ATCC 49619 after 20 hrs by CLSI based-broth microdilution method; conditions: ATCC 49619, 20 h
[2] = system: Klebsiella pneumoniae; assay: Antibacterial activity against Klebsiella pneumoniae ATCC 700603 after 20 hrs by CLSI based-broth microdilution method; conditions: ATCC 700603, 20 h
[3] = system: Acinetobacter baumannii; assay: Antibacterial activity against Acinetobacter baumannii ATCC 19606 after 20 hrs by CLSI based-broth microdilution method; conditions: ATCC 19606 = CIP 70.34 = JCM 6841, 20 h
[4] = system: Pseudomonas aeruginosa; assay: Antibacterial activity against Pseudomonas aeruginosa ATCC 27853 after 20 hrs by CLSI based-broth microdilution method; conditions: ATCC 27853, 20 h
[5] = system: Enterobacter cloacae; assay: Antibacterial activity against Enterobacter cloacae ATCC 13047 after 20 hrs by CLSI based-broth microdilution method; conditions: subsp. cloacae ATCC 13047, 20 h
[6] = system: Escherichia coli; assay: Antibacterial activity against Escherichia coli ATCC 25922 after 20 hrs by CLSI based-broth microdilution method; conditions: ATCC 25922, 20 h

SMILES | MIC [1] [µg/mL] | MIC [2] [µg/mL] | MIC [3] [µg/mL] | MIC [4] [µg/mL] | MIC [5] [µg/mL] | MIC [6] [µg/mL]
O=C(O)c1ccccc1C(=O)c1ccc(NCc2ccccc2F)c([N+](=O)[O-])c1 | 256 (≈ 649 µM) | > 256 | > 256 | > 256 | > 256 | > 256
NC(=O)c1cccc(NCc2ccc(Sc3ccc(Cl)c(Cl)c3)c([N+](=O)[O-])c2)c1 | > 256 | > 256 | > 256 | > 256 | > 256 | > 256
Cc1ccc(Sc2ccc(C(=O)c3ccccc3C(=O)O)cc2[N+](=O)[O-])c(C)c1 | 32 (≈ 78.5 µM) | > 256 | > 256 | > 256 | > 256 | > 256
O=C(O)c1ccccc1C(=O)c1ccc(N2CCOCC2)c([N+](=O)[O-])c1 | > 256 | > 256 | > 256 | > 256 | > 256 | > 256
Cc1cccc(Nc2ccc(C(=O)c3ccccc3C(=O)O)cc2[N+](=O)[O-])c1 | 128 (≈ 340 µM) | > 256 | > 256 | > 256 | > 256 | > 256
Cc1ccc(C(=O)O)cc1NCc1ccc(Sc2ccc(Cl)c(Cl)c2)c([N+](=O)[O-])c1 | 16 (≈ 34.5 µM) | > 256 | > 256 | > 256 | > 256 | > 256
Cc1occc1Sc1ccc(C(=O)c2ccccc2C(=O)O)cc1[N+](=O)[O-] | 256 (≈ 668 µM) | > 256 | > 256 | > 256 | > 256 | > 256
O=C(O)c1ccccc1C(=O)c1ccc(NCc2ccccc2)c([N+](=O)[O-])c1 | 256 (≈ 680 µM) | > 256 | > 256 | > 256 | > 256 | > 256
O=C(O)c1ccccc1C(=O)c1ccc(Nc2cccc(Cl)c2)c([N+](=O)[O-])c1 | 256 (≈ 645 µM) | > 256 | > 256 | > 256 | > 256 | > 256
O=C(O)c1ccccc1C(=O)c1ccc(Nc2nccs2)c([N+](=O)[O-])c1 | > 256 | > 256 | > 256 | > 256 | > 256 | > 256
O=C(O)c1ccccc1C(=O)c1ccc(Sc2ccccc2F)c([N+](=O)[O-])c1 | 128 (≈ 322 µM) | > 256 | > 256 | > 256 | > 256 | > 256
O=C(O)c1ccccc1C(=O)c1ccc(Nc2ccccc2)c([N+](=O)[O-])c1 | 256 (≈ 707 µM) | > 256 | > 256 | > 256 | > 256 | > 256
Nc1ccccc1Nc1ccc(C(=O)c2ccccc2C(=O)O)cc1[N+](=O)[O-] | > 256 | > 256 | > 256 | > 256 | > 256 | > 256
COc1ccc(Nc2ccc(C(=O)c3ccccc3C(=O)O)cc2[N+](=O)[O-])cc1 | > 256 | > 256 | > 256 | > 256 | > 256 | > 256
O=C(O)c1ccccc1C(=O)c1ccc(Nc2ccc(Cl)c(Cl)c2)c([N+](=O)[O-])c1 | 64 (≈ 148 µM) | > 256 | > 256 | > 256 | > 256 | > 256
CC(C)(C)c1cccc(Nc2ccc(C(=O)c3ccccc3C(=O)O)cc2[N+](=O)[O-])c1 | 256 (≈ 612 µM) | > 256 | > 256 | > 256 | > 256 | > 256
Nc1ccccc1Sc1ccc(CNc2ccccc2C(=O)O)cc1[N+](=O)[O-] | 64 (≈ 162 µM) | > 256 | > 256 | > 256 | > 256 | > 256
O=C(O)c1ccccc1C(=O)c1ccc(Nc2cccc3cccnc23)c([N+](=O)[O-])c1 | > 256 | > 256 | > 256 | > 256 | > 256 | > 256
O=C(O)c1ccccc1C(=O)c1ccc(Sc2ccc(Cl)cc2Cl)c([N+](=O)[O-])c1 | 32 (≈ 71.4 µM) | > 256 | > 256 | > 256 | > 256 | > 256
NS(=O)(=O)c1cccc(NCc2ccc(Sc3ccc(Cl)c(Cl)c3)c([N+](=O)[O-])c2)c1 | 64 (≈ 132 µM) | > 256 | > 256 | > 256 | > 256 | > 256
Nc1ccccc1Sc1ccc(CNc2ccc(C(=O)O)cc2)cc1[N+](=O)[O-] | 256 (≈ 647 µM) | > 256 | > 256 | > 256 | > 256 | > 256

SMILES | MIC [1] [µg/mL] | MIC [2] [µg/mL] | MIC [3] [µg/mL] | MIC [4] [µg/mL] | MIC [5] [µg/mL] | MIC [6] [µg/mL]
CC(=O)Nc1cccc(Sc2ccc(C(=O)c3ccccc3C(=O)O)cc2[N+](=O)[O-])c1 | 256 (≈ 587 µM) | > 256 | > 256 | > 256 | > 256 | > 256
NC(=O)c1cccc(Nc2ccc(C(=O)c3ccccc3C(=O)O)cc2[N+](=O)[O-])c1 | > 256 | > 256 | > 256 | > 256 | > 256 | > 256
CCN(CC)C(=O)c1ccc(Sc2ccc(C(=O)c3ccccc3C(=O)O)cc2[N+](=O)[O-])c([N+](=O)[O-])c1 | 256 (≈ 489 µM) | > 256 | > 256 | > 256 | > 256 | > 256
O=C(O)c1ccccc1C(=O)c1ccc(Nc2cccc(CO)c2)c([N+](=O)[O-])c1 | > 256 | > 256 | > 256 | > 256 | > 256 | > 256
NC(=O)c1ccccc1NCc1ccc(Sc2ccc(Cl)c(Cl)c2)c([N+](=O)[O-])c1 | > 256 | > 256 | > 256 | > 256 | > 256 | > 256
O=C(Nc1cccc(Sc2ccc(C(=O)c3ccccc3C(=O)O)cc2[N+](=O)[O-])c1)c1ccccc1 | 32 (≈ 64.2 µM) | > 256 | > 256 | > 256 | > 256 | > 256
Nc1ccccc1Sc1ccc(C(=O)Nc2cccc(C(=O)O)c2)cc1[N+](=O)[O-] | 128 (≈ 313 µM) | > 256 | > 256 | > 256 | > 256 | > 256
O=C(O)c1ccccc1C(=O)c1ccc(N2CCCCC2)c([N+](=O)[O-])c1 | 256 (≈ 722 µM) | > 256 | > 256 | > 256 | > 256 | > 256
Nc1ccccc1Sc1ccc(CNc2cccc(C(=O)O)c2)cc1[N+](=O)[O-] | 64 (≈ 162 µM) | > 256 | > 256 | > 256 | > 256 | > 256
O=C(O)c1ccc(N2CCOCC2)c(NCc2ccc(Sc3ccc(Cl)c(Cl)c3)c([N+](=O)[O-])c2)c1 | 16 (≈ 29.9 µM) | > 256 | > 256 | > 256 | > 256 | > 256
O=C(O)c1ccccc1C(=O)c1ccc(Sc2ccccn2)c([N+](=O)[O-])c1 | > 256 | > 256 | > 256 | > 256 | > 256 | > 256
Nc1ccccc1Sc1ccc(C(=O)Nc2ccccc2C(=O)O)cc1[N+](=O)[O-] | 64 (≈ 156 µM) | > 256 | > 256 | > 256 | > 256 | > 256
COc1ccccc1Sc1ccc(C(=O)c2ccccc2C(=O)O)cc1[N+](=O)[O-] | 128 (≈ 313 µM) | > 256 | > 256 | > 256 | > 256 | > 256
N#Cc1ccccc1NCc1ccc(Sc2ccc(Cl)c(Cl)c2)c([N+](=O)[O-])c1 | > 256 | > 256 | > 256 | > 256 | > 256 | > 256
Cc1cccc([N+](=O)[O-])c1Sc1ccc(C(=O)c2ccccc2C(=O)O)cc1[N+](=O)[O-] | 128 (≈ 292 µM) | > 256 | > 256 | > 256 | > 256 | > 256
O=C(Nc1ccccc1C(=O)O)c1ccc(Sc2ccc(Cl)c(Cl)c2)c([N+](=O)[O-])c1 | > 256 | > 256 | > 256 | > 256 | > 256 | > 256
O=C(O)c1ccc(F)c(NCc2ccc(Sc3ccc(Cl)c(Cl)c3)c([N+](=O)[O-])c2)c1 | > 256 | > 256 | > 256 | > 256 | > 256 | > 256
O=[N+]([O-])c1cc(CNc2cccc(CO)c2)ccc1Sc1ccc(Cl)c(Cl)c1 | > 256 | > 256 | > 256 | > 256 | > 256 | > 256
Nc1cc(C(=O)c2ccccc2C(=O)O)ccc1Sc1ccc(Cl)c(Cl)c1 | 32 (≈ 76.5 µM) | > 256 | > 256 | > 256 | > 256 | > 256
CC(C)Nc1cccc(Sc2ccc(C(=O)c3ccccc3C(=O)O)cc2[N+](=O)[O-])c1 | 32 (≈ 73.3 µM) | > 256 | > 256 | > 256 | > 256 | > 256
NC1CCCCC1Nc1ccc(C(=O)c2ccccc2C(=O)O)cc1[N+](=O)[O-] (configuration not stated) | > 256 | > 256 | > 256 | > 256 | > 256 | > 256
